In patent US8952024B2, “Herbicidal pyrimidone derivatives” (E I du Pont de Nemours and Company, priority 2009, dated 2015):

Experiments:
Assay type in all cases: in vivo
[1] = tested on: umbrella sedge (Cyperus difformis); assay: Test B flooded paddy test; conditions: for Plant response rating, Flood, Sedge, Umbrella: 250 g ai/ha, flooded paddy test, visual rating on 0 to 100 scale (0 no effect, 100 complete control) after 13 to 15 days; for Plant response rating, Sedge, Umbrella: Flood (flooded paddy test), 62 g ai/ha, 13 to 15 days
Procedure, shortened: (§1)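 Greenhouse-held for 13 to 15 days, treated pots were compared visually with controls and scored 0–100 (0, no effect). Treatment had been made into paddy water kept at 3 cm above the soil, with plants at the 2-leaf stage.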

rice (Oryza sativa) = assay: Test B flooded paddy test; conditions: for Plant response rating, Flood, Rice: 250 g ai/ha, flooded paddy test, visual rating on 0 to 100 scale (0 no effect, 100 complete control) after 13 to 15 days; for Plant response rating, Rice: Flood (flooded paddy test), 62 g ai/ha, 13 to 15 days
Procedure, shortened: as §1

[2] = tested on: giant foxtail (Setaria faberii); assay: Test B pre-/postemergence plant response
Procedure, shortened: (§2)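 Visually scored on a 0 to 100 scale after 13 to 15 days in greenhouse versus controls. Treatments were preemergence on seeded loam/sand soil and postemergence on 1- to 4-leaf plants.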

wild oat (Avena fatua) = assay: Test B pre-/postemergence plant response
Procedure, shortened: as §2

[3] = tested on: Surinam grass (Brachiaria decumbens); assay: Test B pre-/postemergence plant response
Procedure, shortened: as §2

[4] = tested on: pigweed (Amaranthus retroflexus); assay: Test B pre-/postemergence plant response
Procedure, shortened: as §2

[5] = tested on: green foxtail (Setaria viridis); assay: Test B pre-/postemergence plant response
Procedure, shortened: as §2

corn (Zea mays) = assay: Test B pre-/postemergence plant response
Procedure, shortened: as §2

[6] = tested on: ragweed (common ragweed, Ambrosia elatior); assay: Test B pre-/postemergence plant response
Procedure, shortened: as §2

[7] = tested on: blackgrass (Alopecurus myosuroides); assay: Test B pre-/postemergence plant response
Procedure, shortened: as §2

[8] = tested on: lambsquarters (Chenopodium album); assay: Test B pre-/postemergence plant response
Procedure, shortened: as §2

[9] = tested on: goosegrass (Eleusine indica); assay: Test B pre-/postemergence plant response
Procedure, shortened: as §2

[10] = tested on: johnsongrass (Sorghum halepense); assay: Test B pre-/postemergence plant response
Procedure, shortened: as §2

[11] = scale 0 to 100, 0 is no effect, 100 is complete control
[12] = 250 g ai/ha, Preemergence, 0 to 100 scale
[13] = Postemergence, 31 g ai/ha, scale 0 to 100 (0 no effect, 100 complete control)
[14] = Postemergence, 62 g ai/ha, scale 0 (no effect) to 100 (complete control), 13 to 15 days
[15] = Postemergence, 125 g ai/ha, visual rating after 13 to 15 days, scale 0 (no effect) to 100 (complete control)
[16] = Postemergence, 250 g ai/ha, scale 0 to 100
[17] = Preemergence, 31 g ai/ha, scale 0 to 100 (0 no effect, 100 complete control)
[18] = Preemergence, 62 g ai/ha, scale 0 to 100 (0 no effect, 100 complete control)
[19] = Preemergence, 125 g ai/ha, 0 to 100 scale
[20] = scale of 0 to 100 where 0 is no effect and 100 is complete control

Cc1ccc(F)cc1-n1c(-c2ccccc2)ncc(C(=O)C2=C(O)CCCC2=O)c1=O [Compound 44]
Plant response rating, Flood, Sedge, Umbrella [1]: 90 | Plant response rating, Sedge, Umbrella [1, 11]: 80 | Plant response rating, Flood, Rice (rice (Oryza sativa)): 40 | Plant response rating, Rice (rice (Oryza sativa); [11]): 20 | Plant response rating, Foxtail, Giant [2, 12]: 98 | Plant response rating, Foxtail, Giant [2, 13]: 95 | Plant response rating, Foxtail, Giant [2, 14]: 95 | Plant response rating, Foxtail, Giant [2, 15]: 95 | Foxtail, Giant plant response rating [2, 16]: 98 | Plant response rating, Foxtail, Giant [2, 17]: 20 | Plant response rating, Foxtail, Giant [2, 18]: 45 | Foxtail, Giant plant response rating [2, 19]: 75 | Plant response rating, Oat, Wild (wild oat (Avena fatua); [12]): 30 | Plant response rating, Oat, Wild (wild oat (Avena fatua); [14]): 80 | Plant response rating, Oat, Wild (wild oat (Avena fatua); [15]): 80 | Plant response rating, Oat, Wild (wild oat (Avena fatua); [17]): 0 | Oat, Wild plant response rating (wild oat (Avena fatua); [19]): 5 | Plant response rating, Surinam Grass [3, 12]: 100 | Plant response rating, Surinam Grass [3, 14]: 95 | Plant response rating, Surinam Grass [3, 15]: 95 | Plant response rating, Surinam Grass [3, 17]: 65 | Surinam Grass plant response rating [3, 19]: 90 | Plant response rating, Pigweed [4, 12]: 100 | Plant response rating, Pigweed [4, 14]: 95 | Plant response rating, Pigweed [4, 15]: 98 | Plant response rating, Pigweed [4, 17]: 98 | Pigweed plant response rating [4, 19]: 100 | Plant response rating, Foxtail, Green [5, 12]: 100 | Plant response rating, Foxtail, Green [5, 13]: 90 | Plant response rating, Foxtail, Green [5, 14]: 90 | Plant response rating, Foxtail, Green [5, 15]: 90 | Foxtail, Green plant response rating [5, 16]: 90 | Plant response rating, Foxtail, Green [5, 17]: 0 | Plant response rating, Foxtail, Green [5, 18]: 98 | Foxtail, Green plant response rating [5, 19]: 98 | Plant response rating, Corn (corn (Zea mays); [12]): 0 | Plant response rating, Corn (corn (Zea mays); [13]): 75 | Plant response rating, Corn (corn (Zea mays); [14]): 80 | Plant response rating, Corn (corn (Zea mays); [15]): 80 | Corn plant response rating (corn (Zea mays); [16]): 85 | Plant response rating, Corn (corn (Zea mays); [17]): 0 | Plant response rating, Corn (corn (Zea mays); [18]): 0 | Corn plant response rating (corn (Zea mays); [19]): 0 | Plant response rating, Ragweed [6, 12]: 95 | Plant response rating, Ragweed [6, 14]: 95 | Plant response rating, Ragweed [6, 15]: 95 | Plant response rating, Ragweed [6, 17]: 20 | Ragweed plant response rating [6, 19]: 95 | Plant response rating, Blackgrass [7, 12]: 60 | Plant response rating, Blackgrass [7, 13]: 0 | Plant response rating, Blackgrass [7, 14]: 10 | Plant response rating, Blackgrass [7, 15]: 30 | Blackgrass plant response rating [7, 16]: 30 | Plant response rating, Blackgrass [7, 17]: 5 | Plant response rating, Blackgrass [7, 18]: 30 | Blackgrass plant response rating [7, 19]: 40 | Plant response rating, Lambsquarters [8, 12]: 100 | Plant response rating, Lambsquarters [8, 14]: 95 | Plant response rating, Lambsquarters [8, 15]: 95 | Lambsquarters plant response rating [8, 16]: 98 | Plant response rating, Lambsquarters [8, 17]: 100 | Plant response rating, Lambsquarters [8, 18]: 100 | Lambsquarters plant response rating [8, 19]: 100 | Plant response rating, Goosegrass [9, 12]: 100 | Plant response rating, Goosegrass [9, 14]: 90 | Plant response rating, Goosegrass [9, 15]: 90 | Goosegrass plant response rating [9, 16]: 95 | Plant response rating, Goosegrass [9, 17]: 90 | Goosegrass plant response rating [9, 19]: 100 | Plant response rating, Johnsongrass [10, 12]: 95 | Plant response rating, Johnsongrass [10, 14]: 70 | Plant response rating, Johnsongrass [10, 15]: 90 | Johnsongrass plant response rating [10, 16]: 95 | Plant response rating, Johnsongrass [10, 17]: 10 | Plant response rating, Johnsongrass [10, 18]: 75 | Johnsongrass plant response rating [10, 19]: 90

Cc1cccc(Cl)c1-n1c(-c2ccccc2)ncc(C(=O)C2=C(O)CCCC2=O)c1=O [Compound 46]
Plant response rating, Flood, Sedge, Umbrella [1]: 65 | Plant response rating, Sedge, Umbrella [1, 20]: 45 | Plant response rating, Flood, Rice (rice (Oryza sativa)): 10 | Plant response rating, Rice (rice (Oryza sativa); [20]): 10 | Plant response rating, Foxtail, Giant [2, 12]: 25 | Plant response rating, Foxtail, Giant [2, 13]: 70 | Plant response rating, Foxtail, Giant [2, 14]: 80 | Plant response rating, Foxtail, Giant [2, 15]: 80 | Foxtail, Giant plant response rating [2, 16]: 85 | Plant response rating, Foxtail, Giant [2, 17]: 0 | Plant response rating, Foxtail, Giant [2, 18]: 0 | Foxtail, Giant plant response rating [2, 19]: 15 | Plant response rating, Oat, Wild (wild oat (Avena fatua); [12]): 0 | Plant response rating, Oat, Wild (wild oat (Avena fatua); [14]): 5 | Plant response rating, Oat, Wild (wild oat (Avena fatua); [15]): 20 | Plant response rating, Oat, Wild (wild oat (Avena fatua); [17]): 0 | Oat, Wild plant response rating (wild oat (Avena fatua); [19]): 0 | Plant response rating, Surinam Grass [3, 12]: 90 | Plant response rating, Surinam Grass [3, 14]: 75 | Plant response rating, Surinam Grass [3, 15]: 80 | Plant response rating, Surinam Grass [3, 17]: 0 | Surinam Grass plant response rating [3, 19]: 75 | Plant response rating, Pigweed [4, 12]: 100 | Plant response rating, Pigweed [4, 14]: 75 | Plant response rating, Pigweed [4, 15]: 80 | Plant response rating, Pigweed [4, 17]: 85 | Pigweed plant response rating [4, 19]: 95 | Plant response rating, Foxtail, Green [5, 12]: 10 | Plant response rating, Foxtail, Green [5, 13]: 45 | Plant response rating, Foxtail, Green [5, 14]: 60 | Plant response rating, Foxtail, Green [5, 15]: 85 | Foxtail, Green plant response rating [5, 16]: 85 | Plant response rating, Foxtail, Green [5, 17]: 0 | Plant response rating, Foxtail, Green [5, 18]: 0 | Foxtail, Green plant response rating [5, 19]: 5 | Plant response rating, Corn (corn (Zea mays); [12]): 0 | Plant response rating, Corn (corn (Zea mays); [13]): 20 | Plant response rating, Corn (corn (Zea mays); [14]): 35 | Plant response rating, Corn (corn (Zea mays); [15]): 60 | Corn plant response rating (corn (Zea mays); [16]): 75 | Plant response rating, Corn (corn (Zea mays); [17]): 0 | Plant response rating, Corn (corn (Zea mays); [18]): 0 | Corn plant response rating (corn (Zea mays); [19]): 0 | Plant response rating, Ragweed [6, 12]: 100 | Plant response rating, Ragweed [6, 14]: 75 | Plant response rating, Ragweed [6, 15]: 80 | Plant response rating, Ragweed [6, 17]: 100 | Ragweed plant response rating [6, 19]: 100 | Plant response rating, Blackgrass [7, 12]: 0 | Plant response rating, Blackgrass [7, 13]: 0 | Plant response rating, Blackgrass [7, 14]: 5 | Plant response rating, Blackgrass [7, 15]: 10 | Blackgrass plant response rating [7, 16]: 10 | Plant response rating, Blackgrass [7, 17]: 0 | Plant response rating, Blackgrass [7, 18]: 0 | Blackgrass plant response rating [7, 19]: 0 | Plant response rating, Lambsquarters [8, 12]: 100 | Plant response rating, Lambsquarters [8, 14]: 85 | Plant response rating, Lambsquarters [8, 15]: 90 | Lambsquarters plant response rating [8, 16]: 95 | Plant response rating, Lambsquarters [8, 17]: 90 | Plant response rating, Lambsquarters [8, 18]: 90 | Lambsquarters plant response rating [8, 19]: 95 | Plant response rating, Goosegrass [9, 12]: 98 | Plant response rating, Goosegrass [9, 14]: 75 | Plant response rating, Goosegrass [9, 15]: 80 | Goosegrass plant response rating [9, 16]: 80 | Plant response rating, Goosegrass [9, 17]: 85 | Goosegrass plant response rating [9, 19]: 98 | Plant response rating, Johnsongrass [10, 12]: 70 | Plant response rating, Johnsongrass [10, 14]: 50 | Plant response rating, Johnsongrass [10, 15]: 70 | Johnsongrass plant response rating [10, 16]: 75 | Plant response rating, Johnsongrass [10, 17]: 0 | Plant response rating, Johnsongrass [10, 18]: 10 | Johnsongrass plant response rating [10, 19]: 45
